In the assay the test system is 1-3 days old chicken memory. As to the kind of experiment: one-trial passive avoidance learning task in chicks (weak training, test 24 hours after training). The conditions noted are these: for dosage at which the maximum effect was observed: weak training, chicks. Type of assay: in vivo. The procedure: The method of one-trial passive avoidance learning task has been used in order to investigate the compounds action on 1-3 days old chicken memory. This is the basic method using for investigation the mechanisms of memory formation. Cross chickens (males) “Ptichnoe” were used in experiments. The animals were delivered at the day of hatching and were kept in pairs in the cages which measured 20×25×20 cm, with constant access to water and feed, at a temperature 28° C. and a light cycle of 12:12 hours. The minimal adaptation time was two hours.
The compounds were dissolved in sterile saline. Intraperitoneal injections of 0.1 ml were used for systemic administration. Bilateral intracranial injections were administrated to the lateral ventricles with […] microsyringe («Hamilton») using plastic headholder. The volume of injections was […] for hemisphere. To control the localizations of injections the monitoring of the surface of skull and brain were carried out after the experiment and decapitation. Control groups received saline of the same volume.
The experiments were conducted according the following scheme: 20 minutes before training the animals were pretrained by being offered two neutral (wet with water) […] fixed to a rod. For further training chicks that pecked each bead within first 10 sec were used. Chicks were offered an aversive bead wet with pungent solution (10% solution of methylanthranilate in ethanol). […] Testing was conducted 24 hours after training by offering within 10 seconds a similar but dry aversive bead, and then—a neutral bead. The avoidance of aversive bead was estimated as a long-term memory.

The mark [1] stands for this setting: administrated either immediately before training, or 4 hours after completion of the training.

In the case of `COC(=O)c1ccc(C(NCCc2ccncc2)C(=O)NCCc2ccncc2)cc1` (stereo not drawn) [ACB-0002, Methyl 4-{2-oxo-1,2-bis[(2-pyridine-4-ylethyl)amino]ethyl}benzoate], the effect on memory entry under setting [1] was “may enhance memory”.
For the compound `O=C(NCCc1ccncc1)C(NCCc1ccncc1)c1ccc2c(c1)OCO2` (stereo not drawn) [ACB-0005, 2-(1,3-benzodioxole-5-yl)-N-(2-pyridine-4-ylethyl)-2-[(2-pyridine-4-ylethyl)-amino]acetamid], the “dosage at which the maximum effect was observed” value runs as follows: (10 min training (route not given)) 0.1 mg/kg; (intracranial injection 10-30 min before training) 5 mg. The effect on memory entry is, setting by setting: under setting [1], “may enhance memory”; (oral administration 30 min before weak treatment, dosage 0.1 to 1.0 mg/kg) “stimulating effect on memory”. The “dosage at which the maximum effect was observed, per animal” value (equivalent of 0.1 mg/kg, 10 min training) is 4 µg per animal.

Source of the values: patent US20220135547A1, “HETEROCYCLIC LOW-MOLECULAR SAPP MIMETICS, A PHARMACEUTICAL COMPOSITION AND METHODS FOR PRODUCING AND USING SAME” (priority 2010, published 2022).
